Test results as given in patent US20240270821A1, “GIP/GLP1/GCG TRI-RECEPTOR AGONISTS AND USES THEREOF” (priority 2023, published 2024).
pEC50: −log10 of the molar value. Starred links: 1 amine or outer side, 2 acyl side, 3 side chain; linkers in the order of their positions; H or OH if unused. Non-standard residues stand in square brackets, D forms with d. Residues, ends and D or L forms follow the SMILES beside them. Groups on a side chain read outwards from the residue. *: point of attachment. C18 diacid = O=C(O)CCCCCCCCCCCCCCCCC(=O)*; γGlu = O=C(O)[C@H](CCC(=O)[*:2])N[*:1]; αMeF = C[C@](N)(Cc1ccccc1)C(=O)O; αMeL = CC(C)C[C@](C)(N)C(=O)O; αMeS = C[C@](N)(CO)C(=O)O; Orn = NCCC[C@H](N)C(=O)O; AEEA = NCCOCCOCC(=O)O; Aib = CC(C)(N)C(=O)O

Columns and labels:
Assay type in all cases: cell-based
hGcgR = hGcgR (Homo sapiens, UniProt P47871); test: Functional cAMP activation in the presence of 0.1% casein (no HSA); conditions: read-out: Relative cAMP EC50, hGcgR;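 also: intracellular cAMP rise after 30 min at 37 °C, read by HTRF against a cAMP standard curve, scaled from buffer only (0%) to maximal control ligand response (100%)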
hGIPR [1] = biological target: T1, hGIPR (Homo sapiens, UniProt P48546); test: as above; conditions: read-out: Relative cAMP EC50, hGIPR;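 also: intracellular cAMP rise after 30 min at 37 °C read by HTRF against a standard curve, scaled between buffer alone (0%) and top control ligand concentration (100%), four-parameter fit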
T1 sequence (P48546 22-466): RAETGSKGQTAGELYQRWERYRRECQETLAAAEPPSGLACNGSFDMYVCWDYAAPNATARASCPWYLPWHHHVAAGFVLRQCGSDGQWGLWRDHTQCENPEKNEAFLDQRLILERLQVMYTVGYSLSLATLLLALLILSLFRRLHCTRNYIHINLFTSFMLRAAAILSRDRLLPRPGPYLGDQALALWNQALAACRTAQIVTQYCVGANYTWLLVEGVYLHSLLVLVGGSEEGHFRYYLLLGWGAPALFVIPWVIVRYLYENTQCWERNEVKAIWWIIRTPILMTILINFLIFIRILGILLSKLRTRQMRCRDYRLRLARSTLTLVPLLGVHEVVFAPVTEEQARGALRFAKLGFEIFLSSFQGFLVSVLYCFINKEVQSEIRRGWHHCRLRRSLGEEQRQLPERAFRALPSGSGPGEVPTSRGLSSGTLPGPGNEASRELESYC

hGIPR [2] = biological target: T1, hGIPR; test: Functional cAMP activity in the presence of 1% HSA; conditions: read-out: cAMP Rel EC50, hGIPR
human GcgR = human GcgR (Homo sapiens, UniProt P47871); test: Functional cAMP activity in the presence of 1% HSA; conditions: read-out: cAMP Rel EC50, hGcgR
hGLP-1R [3] = biological target: T2, hGLP-1R (Homo sapiens, UniProt P43220); test: Functional cAMP activity in the presence of 1% HSA; conditions: read-out: cAMP Rel EC50, hGLP-1R
hGLP-1R [4] = biological target: T2, hGLP-1R; test: Functional cAMP activation in the presence of 0.1% casein (no HSA); conditions: read-out: Relative cAMP EC50, hGLP-1R;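 as to Relative cAMP EC50, hGIPR: intracellular cAMP rise after 30 min at 37 °C read by HTRF against a standard curve, scaled between buffer alone (0%) and top control ligand concentration (100%), four-parameter fit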;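 as to Relative cAMP EC50, hGLP-1R: intracellular cAMP rise after 30 min at 37 °C read by HTRF, normalized between buffer only (0%) and maximal control ligand (100%), four-parameter variable-slope fit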

human GcgR, sequence (P47871 26-477): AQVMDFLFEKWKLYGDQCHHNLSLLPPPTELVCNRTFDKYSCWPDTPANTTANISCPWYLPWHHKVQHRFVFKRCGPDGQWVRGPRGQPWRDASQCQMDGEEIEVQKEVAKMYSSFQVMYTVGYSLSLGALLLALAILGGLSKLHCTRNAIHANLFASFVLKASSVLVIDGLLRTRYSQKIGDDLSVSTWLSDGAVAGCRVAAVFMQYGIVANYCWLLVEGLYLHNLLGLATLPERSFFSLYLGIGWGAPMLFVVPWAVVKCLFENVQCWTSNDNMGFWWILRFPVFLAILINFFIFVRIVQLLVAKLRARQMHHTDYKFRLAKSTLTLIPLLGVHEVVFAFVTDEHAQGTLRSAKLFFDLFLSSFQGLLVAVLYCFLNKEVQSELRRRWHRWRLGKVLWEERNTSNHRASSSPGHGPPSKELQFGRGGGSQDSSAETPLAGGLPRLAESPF
hGcgR, sequence (P47871 26-477): as above
T2 sequence (P43220 24-463): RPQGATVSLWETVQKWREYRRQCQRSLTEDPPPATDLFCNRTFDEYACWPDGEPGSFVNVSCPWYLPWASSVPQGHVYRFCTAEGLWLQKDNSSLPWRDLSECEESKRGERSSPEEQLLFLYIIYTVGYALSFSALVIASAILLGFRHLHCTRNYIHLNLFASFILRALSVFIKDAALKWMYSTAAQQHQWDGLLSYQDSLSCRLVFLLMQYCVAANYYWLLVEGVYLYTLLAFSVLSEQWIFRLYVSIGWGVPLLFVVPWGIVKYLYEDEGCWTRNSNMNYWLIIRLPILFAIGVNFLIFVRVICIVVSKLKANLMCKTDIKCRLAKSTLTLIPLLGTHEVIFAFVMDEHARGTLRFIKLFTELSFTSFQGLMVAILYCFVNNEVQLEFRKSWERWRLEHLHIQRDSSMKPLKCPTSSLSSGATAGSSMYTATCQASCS

| Compound | pEC50 (hGcgR) | pEC50 (hGIPR [1]) | pEC50 (hGIPR [2]) | pEC50 (human GcgR) | pEC50 (hGLP-1R [3]) | pEC50 (hGLP-1R [4]) |
| --- | --- | --- | --- | --- | --- | --- |
| CC[C@H](C)[C@H](NC(=O)[C@H](Cc1ccccc1)NC(=O)[C@H](CCCN)NC(=O)C(C)(C)NC(=O)[C@H](CCC(N)=O)NC(=O)[C@H](C)NC(=O)[C@H](CCCCNC(=O)COCCOCCNC(=O)CC[C@H](NC(=O)CCCCCCCCCCCCCCCCC(=O)O)C(=O)O)NC(=O)[C@H](CCCN)NC(=O)[C@H](CC(=O)O)NC(=O)[C@H](CC(C)C)NC(=O)[C@](C)(CC(C)C)NC(=O)[C@@H](NC(=O)[C@](C)(CO)NC(=O)[C@H](Cc1ccc(O)cc1)NC(=O)[C@H](CC(=O)O)NC(=O)[C@H](CO)NC(=O)[C@@H](NC(=O)[C@](C)(Cc1ccccc1)NC(=O)[C@@H](NC(=O)CNC(=O)[C@H](CCC(N)=O)NC(=O)C(C)(C)NC(=O)[C@@H](N)Cc1ccc(O)cc1)[C@@H](C)O)[C@@H](C)O)[C@@H](C)CC)C(=O)N[C@H](CCC(=O)O)C(=O)N[C@@H](Cc1ccc(O)cc1)C(=O)N[C@@H](CC(C)C)C(=O)N[C@@H](CC(C)C)C(=O)N[C@@H](CCC(=O)O)C(=O)NCC(=O)NCC(=O)N1CCC[C@H]1C(=O)N[C@@H](CO)C(=O)N[C@@H](CO)C(=O)NCC(=O)N[C@@H](CCC(=O)O)C(=O)N1CCC[C@H]1C(=O)N1CCC[C@H]1C(=O)N1CCC[C@H]1C(=O)N[C@@H](CCC(=O)O)C(N)=O [Example 391] (H-Y[Aib]QGT[αMeF]TSDY[αMeS]I[αMeL]LD[Orn]K([AEEA-γGlu-C18 diacid])AQ[Aib][Orn]FI[dE]YLLEGGPSSGEPPPE-NH2) | 8.52 | 10.53 | 7.94 | 6.09 | 7.46 | 9.70 |
| CC[C@H](C)[C@H](NC(=O)[C@H](Cc1ccccc1)NC(=O)[C@H](C)NC(=O)C(C)(C)NC(=O)[C@H](CCC(N)=O)NC(=O)[C@H](C)NC(=O)[C@H](CCCCNC(=O)COCCOCCNC(=O)CC[C@H](NC(=O)CCCCCCCCCCCCCCCCC(=O)O)C(=O)O)NC(=O)[C@H](CCCCN)NC(=O)[C@H](CC(=O)O)NC(=O)[C@H](CC(C)C)NC(=O)[C@H](CC(C)C)NC(=O)[C@@H](NC(=O)[C@H](CO)NC(=O)[C@H](Cc1ccc(O)cc1)NC(=O)[C@H](CC(=O)O)NC(=O)[C@H](CO)NC(=O)[C@@H](NC(=O)[C@](C)(Cc1ccccc1)NC(=O)[C@@H](NC(=O)CNC(=O)[C@H](CCC(N)=O)NC(=O)C(C)(C)NC(=O)[C@@H](N)Cc1ccc(O)cc1)[C@@H](C)O)[C@@H](C)O)[C@@H](C)CC)C(=O)N[C@@H](CCC(=O)O)C(=O)N[C@@H](Cc1ccc(O)cc1)C(=O)N[C@@H](CC(C)C)C(=O)N[C@@H](CCC(=O)O)C(=O)N[C@@H](CCC(=O)O)C(=O)NCC(=O)NCC(=O)N1CCC[C@H]1C(=O)N[C@@H](CO)C(=O)N[C@@H](CO)C(=O)NCC(=O)N[C@@H](C)C(=O)N1CCC[C@H]1C(=O)N1CCC[C@H]1C(=O)N1CCC[C@H]1C(=O)N[C@@H](CO)C(N)=O [Example 392] (H-Y[Aib]QGT[αMeF]TSDYSILLDKK([AEEA-γGlu-C18 diacid])AQ[Aib]AFIEYLEEGGPSSGAPPPS-NH2) | 8.52 | 10.24 | 7.54 | 6.21 | 7.38 | 9.60 |
| CC[C@H](C)[C@H](NC(=O)[C@H](Cc1ccccc1)NC(=O)[C@H](C)NC(=O)C(C)(C)NC(=O)[C@H](CCC(N)=O)NC(=O)[C@H](C)NC(=O)[C@H](CCCCNC(=O)COCCOCCNC(=O)CC[C@H](NC(=O)CCCCCCCCCCCCCCCCC(=O)O)C(=O)O)NC(=O)[C@H](CCCCN)NC(=O)[C@H](CC(=O)O)NC(=O)[C@H](CC(C)C)NC(=O)[C@H](CC(C)C)NC(=O)[C@@H](NC(=O)[C@](C)(CO)NC(=O)[C@H](Cc1ccc(O)cc1)NC(=O)[C@H](CC(=O)O)NC(=O)[C@H](CO)NC(=O)[C@@H](NC(=O)[C@](C)(Cc1ccccc1)NC(=O)[C@@H](NC(=O)CNC(=O)[C@H](CCC(N)=O)NC(=O)C(C)(C)NC(=O)[C@@H](N)Cc1ccc(O)cc1)[C@@H](C)O)[C@@H](C)O)[C@@H](C)CC)C(=O)N[C@@H](CCC(=O)O)C(=O)N[C@@H](Cc1ccc(O)cc1)C(=O)N[C@@H](CC(C)C)C(=O)N[C@@H](CCC(=O)O)C(=O)N[C@@H](CCC(=O)O)C(=O)NCC(=O)NCC(=O)N1CCC[C@H]1C(=O)N[C@@H](CO)C(=O)N[C@@H](CO)C(=O)NCC(=O)N[C@@H](C)C(=O)N1CCC[C@H]1C(=O)N1CCC[C@H]1C(=O)N1CCC[C@H]1C(=O)N[C@@H](CO)C(N)=O [Example 393] (H-Y[Aib]QGT[αMeF]TSDY[αMeS]ILLDKK([AEEA-γGlu-C18 diacid])AQ[Aib]AFIEYLEEGGPSSGAPPPS-NH2) | 9.02 | 10.34 | 7.91 | 6.82 | 7.53 | 9.68 |
| CC[C@H](C)[C@H](NC(=O)[C@H](Cc1ccccc1)NC(=O)[C@H](C)NC(=O)C(C)(C)NC(=O)[C@H](CCC(N)=O)NC(=O)[C@H](C)NC(=O)[C@H](CCCCNC(=O)COCCOCCNC(=O)CC[C@H](NC(=O)CCCCCCCCCCCCCCCCC(=O)O)C(=O)O)NC(=O)[C@H](CCCCN)NC(=O)[C@H](CC(=O)O)NC(=O)[C@H](CC(C)C)NC(=O)[C@](C)(CC(C)C)NC(=O)[C@@H](NC(=O)[C@H](CO)NC(=O)[C@H](Cc1ccc(O)cc1)NC(=O)[C@H](CC(=O)O)NC(=O)[C@H](CO)NC(=O)[C@@H](NC(=O)[C@](C)(Cc1ccccc1)NC(=O)[C@@H](NC(=O)CNC(=O)[C@H](CCC(N)=O)NC(=O)C(C)(C)NC(=O)[C@@H](N)Cc1ccc(O)cc1)[C@@H](C)O)[C@@H](C)O)[C@@H](C)CC)C(=O)N[C@@H](CCC(=O)O)C(=O)N[C@@H](Cc1ccc(O)cc1)C(=O)N[C@@H](CC(C)C)C(=O)N[C@@H](CCC(=O)O)C(=O)N[C@@H](CCC(=O)O)C(=O)NCC(=O)NCC(=O)N1CCC[C@H]1C(=O)N[C@@H](CO)C(=O)N[C@@H](CO)C(=O)NCC(=O)N[C@@H](C)C(=O)N1CCC[C@H]1C(=O)N1CCC[C@H]1C(=O)N1CCC[C@H]1C(=O)N[C@@H](CO)C(N)=O [Example 394] (H-Y[Aib]QGT[αMeF]TSDYSI[αMeL]LDKK([AEEA-γGlu-C18 diacid])AQ[Aib]AFIEYLEEGGPSSGAPPPS-NH2) | 8.25 | 10.74 | 8.14 | 5.96 | 7.48 | 9.65 |
| CC[C@H](C)[C@H](NC(=O)[C@H](Cc1ccccc1)NC(=O)[C@H](C)NC(=O)C(C)(C)NC(=O)[C@H](CCC(N)=O)NC(=O)[C@H](C)NC(=O)[C@H](CCCCNC(=O)COCCOCCNC(=O)CC[C@H](NC(=O)CCCCCCCCCCCCCCCCC(=O)O)C(=O)O)NC(=O)[C@H](CCCCN)NC(=O)[C@H](CC(=O)O)NC(=O)[C@H](CC(C)C)NC(=O)[C@](C)(CC(C)C)NC(=O)[C@@H](NC(=O)[C@H](CO)NC(=O)[C@H](Cc1ccc(O)cc1)NC(=O)[C@H](CC(=O)O)NC(=O)[C@H](CO)NC(=O)[C@@H](NC(=O)[C@](C)(Cc1ccccc1)NC(=O)[C@@H](NC(=O)CNC(=O)[C@H](CCC(N)=O)NC(=O)C(C)(C)NC(=O)[C@@H](N)Cc1ccc(O)cc1)[C@@H](C)O)[C@@H](C)O)[C@@H](C)CC)C(=O)N[C@@H](CCC(=O)O)C(=O)N[C@@H](Cc1ccc(O)cc1)C(=O)N[C@@H](CC(C)C)C(=O)N[C@@H](CCC(=O)O)C(=O)N[C@@H](CCC(=O)O)C(=O)NCC(=O)NCC(=O)N1CCC[C@H]1C(=O)N[C@@H](CO)C(=O)N[C@@H](CO)C(=O)NCC(=O)N[C@@H](C)C(=O)N1CCC[C@H]1C(=O)N1CCC[C@H]1C(=O)N1CCC[C@H]1C(=O)N[C@@H](CO)C(=O)N[C@@H](CCC(=O)O)C(=O)NCC(N)=O [Example 395] | 8.26 | 10.61 | 8.17 | 5.92 | 7.46 | 9.46 |
